{"source": "patent US20160270687A1", "about": "“System and Method for Quantitative Magnetic Resonance (MR) Analysis Using T1 Mapping” (priority 2013, published 2016)", "key": {"[1]": {"system": "orthotopic Gli36Δ5 glioma tumors", "test": "Quantitative T1 mapping of orthotopic brain tumors with Optimark", "details": "for time of peak contrast following the injection: 0.1 mmol/kg", "source_text": "This is because T1 mapping is a quantitative MR imaging method that yields the absolute T1 relaxation values as opposed to the relative signal intensity values in T1-weighted images.\nHigh-resolution T2-weighted MR images were acquired to localize the tumor and enable identification of the largest cross-section of tumor on MRI.\nGraph 2300 illustrates mean Gd concentrations in the tumor before and after intravenous administration of 0.1 (line 2310) or 0.2 mmol/kg (line 2320) Optimark™ in cohorts of nu/nu athymic mice bearing orthotopic glioma tumors. Data is plotted as means+/−standard error. The mean tumor Gd concentration was measured at baseline or pre-agent and after contrast agent injection was measured every 2.5 minutes for 30 minutes."}, "LN-229 flank tumors": {"system": "LN-229 flank tumors", "test": "Dynamic quantitative T1 mapping and Gd concentration maps of flank tumors", "protocol": "Representative bright-field images of GFP-positive LN-229 flank tumors for animals where 0.2 mmol Gd/kg of Optimark™, scrambled-Tris-(Gd-DOTA)3, or SBK2-Tris-(Gd-DOTA)3 was administered are presented in row 1210 in columns 1202, 1204, and 1206 respectively. GFP fluorescence images of LN-229 tumor cells for each of the three contrast agents are presented in row 1220 in columns 1202, 1204, and 1206 respectively. T2 high resolution images are presented in row 1230 in columns 1202, 1204, and 1206 respectively. T2 low-resolution images with a region of interest (ROI) illustrated by a dashed line are presented in row 1240 in columns 1202, 1204, and 1206 respectively show the tumor area used for T1 map quantification. Axial T1-weighted images of LN-229 flank tumor at baseline or pre-agent (e.g., before injection of contrast agents) are shown in row 1250. Axial T1-weighted images of LN-229 flank tumor at time of maximum contrast (e.g., 15 minutes) following intravenous injection are shown in row 1260.\nHigh-resolution T2-weighted images were obtained for each mouse using a RARE (Rapid Acquisition with Relaxation Enhancement) acquisition (TR/TE=5000/40 ms, 20 slices, resolution=0.117×0.117×0.5 mm) to select the imaging slice for the dynamic T1 mapping acquisition. The dynamic T1 data were then acquired using a snapshot GRE (Gradient Recalled Echo) acquisition with inversion recovery preparation (10 inversion times [263, 775, 1287, 1799, 2311, 2823, 3335, 3847, 4359, and 4871 ms], GRE imaging readout TR/TE=4.0 ms/1.3 ms, flip angle=10 degrees, resolution=0.234×0.234×1 mm, Field of View (FOV)=30×30 mm, and 10 signal averages). The total acquisition time for each T1 mapping scan was 2.5 min. After five baseline/pre-agent T1 mapping scans, Optimark™, the targeted SBK2-Tris-(Gd-DOTA)3 agent, or the non-targeted scrambled-Tris-(Gd-DOTA)3 control was injected at a dose of 0.2 mmol of Gd/kg followed by a 50 μL flush of saline. T1 maps were then consecutively acquired every 2.5 min over 62.5 min.\nThe MRI data were imported into MATLAB enabling estimation of both pixel-wise T1 relaxation time maps as well as mean intra-tumoral T1 changes using an ROI analysis. The T1 maps were obtained from the T1 mapping acquisition mono-exponential models. To compare the multiple imaging agents, the pre and post-agent T1 maps were then used to calculate maps of percent change in T1, which is directly related to the concentration of each agent within the tumor. To calculate Gd concentrations, T1 relaxivity constants determined at 9.4 T were used along with T1 map values.\nAs the T1 maps and T2-weighted images were co-registered, the ROI analysis was performed by outlining the ROI on the T2-weighted images. The same ROI was then applied to all of the T1 maps and the average value in the ROI was calculated as a measure of tumor uptake of each imaging agent. Plots of normalized T1 values in the tumor were calculated by dividing the post-agent injection T1 maps by an average of the 5 baseline (pre-agent injection) tumor T1 values. This normalization was performed to limit the effects of variation in the pre-contrast tumor T1 values on the comparison of the molecular imaging agents.\nAs an imaging marker for contrast agent retention, a slope analysis was performed on the normalized T1 values. Slopes were calculated for Optimark™, scrambled-Tris-(Gd-DOTA)3, and SBK2-Tris-(Gd-DOTA)3 by using all of the mean tumor T1 values from 15 minutes to 60 minutes following agent administration. For each pair of contrast agents, normalized T1 map values at each time point, along with the slopes of post-agent T1 curves were evaluated for statistical significance using a two-tailed Student's t-test, assuming statistical significance at p<0.05."}, "LN-229 flank tumor": {"system": "LN-229 flank tumor", "assay_type": "in vivo, mice", "protocol": "FIG. 8 illustrates that the SBK2 based specific molecular imaging agent improves the enhancement of LN-229 tumors. FIG. 8 illustrates representative T1-weighted axial 2D gradient images of LN-229 flank tumor-bearing mice before (pre-injection) (column 840) and at 1 minute (column 842), 5 minutes (column 844), 10 minutes (column 846), 20 minutes (column 848), and 30 minutes (column 850) after the intravenous injection of ProHance™ (row 810), scrambled Tris-(Gd-DOTA)3 (row 820), or SBK2-Tris-(Gd-DOTA)3 (row 830) at 0.1 mmol Gd/kg. FIG. 8 also illustrates axial 2D gradient images heat map overlays on the tumor to indicate contrast intensity. FIG. 8 illustrates heat maps with overlays for T1-weighted axial 2D gradient images of LN-229 flank tumor-bearing mice before (pre-injection) (column 882) and at 1 minute (column 884), 5 minutes (column 886), 10 minutes (column 888), 20 minutes (column 890), and 30 minutes (column 892) after the intravenous injection of ProHance™ (row 860), scrambled Tris-(Gd-DOTA)3 (row 870), or SBK2-Tris-(Gd-DOTA)3 (row 880) at 0.1 mmol Gd/kg.\nThe SBK2 based specific molecular imaging agent was developed as a diagnostic imaging tool. To function as an imaging tool, SBK2 was conjugated to a Gd chelate [SBK2-Tris-(Gd-DOTA)3] to generate an MR-detectable molecular imaging agent. The ability of SBK2-Tris-(Gd-DOTA)3 to function as a contrast agent was compared to a macrocyclic gadolinium chelate (Gadoteridol, ProHance™) and to a scrambled molecular imaging agent linked to gadolinium [scrambled Tris-(Gd-DOTA)3]. SBK2-Tris-(Gd-DOTA)3 labeled human glioma tumors with a high level of contrast persisting for two hours. […] SBK2-Tris-(Gd-DOTA)3 labeling of PTPμ extracellular fragment retained in the tumor microenvironment is a more specific MR molecular imaging agent than a nonspecific gadolinium chelate.\nFIG. 9 illustrates quantitation of LN-229 flank tumor enhancement following administration of control or targeted contrast agents in xenograft mice. Graphs 900 and 910 illustrate dose-response plots of LN-229 flank tumor contrast to noise ratio (CNR) with ProHance™ or SBK2-Tris-(Gd-DOTA)3 respectively administered at 0.03 mmol Gd/kg or 0.1 mmol Gd/kg.\nData is shown as means±SEM. […] At 60 to 120 minutes post-injection, the ProHance™ cleared more rapidly than SBK2-Tris-(Gd-DOTA)3 resulting in greater than 110% increase in SBK2-Tris-(Gd-DOTA)3 tumor CNR compared with ProHance™ (P<0.001). The SBK2-Tris-(Gd-DOTA)3 tumor CNR was approximately 53% greater than the scrambled Tris-(Gd-DOTA)3 tumor CNR at 60 to 90 minutes (P<0.001)."}}, "note": "Peptide text beside a SMILES is read from it. * marks the point of attachment. X1 = O=C(O)CN1CCN(CC(=O)O)CCN(CC(=O)NCCCn2cc(COCC(COCc3cn(CCCNC(=O)CN4CCN(CC(=O)O)CCN(CC(=O)O)CCN(CC(=O)O)CC4)nn3)(COCc3cn(CCCNC(=O)CN4CCN(CC(=O)O)CCN(CC(=O)O)CCN(CC(=O)O)CC4)nn3)NC(=O)CCN3C(=O)CC(*)C3=O)nn2)CCN(CC(=O)O)CC1", "data": [{"compound": "COCCNC(=O)CN(CCN(CCN(CC(=O)[O-])CC(=O)NCCOC)CC(=O)[O-])CC(=O)[O-].[Gd+3]", "note": "[Optimark™, gadoversetamide]", "values": [{"measurement": "time of peak enhancement in the tumors (mean normalized T1)", "setting": "[1]; 0.1 mmol/kg dose", "result": 5, "unit": "min"}, {"measurement": "change in normalized T1 values", "setting": "[1]; 0.1 mmol/kg dose, 5 minutes", "result": "modest decrease"}, {"measurement": "distinction between T1 value of normal brain and tumor", "setting": "[1]; 0.1 mmol/kg dose, 30 minutes", "result": "no distinction"}, {"measurement": "time of peak contrast following the injection", "setting": "[1]; T1-weighted FLASH images", "result": "five"}, {"measurement": "time of peak contrast following the injection", "setting": "[1]; snapshot GRE images, T1 maps, Gd concentration maps", "result": "two and a half"}, {"measurement": "time of peak enhancement in the tumors (mean normalized T1)", "setting": "[1]; 0.2 mmol/kg dose", "result": 5, "unit": "min"}, {"measurement": "change in normalized T1 values compared to 0.1 mmol/kg", "setting": "[1]; 0.2 mmol/kg dose, 5 minutes", "result": "larger decrease"}, {"measurement": "distinction between normalized T1 values of normal brain and tumor", "setting": "[1]; 0.2 mmol/kg dose, 30 minutes", "result": "weak distinction"}, {"measurement": "time after peak within which contrast agent concentration begins to diminish", "setting": "LN-229 flank tumors; mouse, in vivo", "result": "thirty"}]}, {"compound": "CC(O)CN1CCN(CC(=O)[O-])CCN(CC(=O)[O-])CCN(CC(=O)[O-])CC1.[Gd+3]", "note": "(centres unmarked) [Prohance™, gadoteridol, reference compound]", "values": [{"measurement": "time after peak within which contrast agent concentration begins to diminish", "setting": "LN-229 flank tumors; mouse, in vivo", "result": "thirty"}]}, {"compound": "CC(C)C[C@H](NC(=O)[C@@H](NC(=O)[C@H](CC(N)=O)NC(=O)[C@@H](NC(=O)[C@H](CCC(N)=O)NC(=O)[C@H](CCC(=O)O)NC(=O)[C@H](Cc1c[nH]c2ccccc12)NC(=O)[C@H](CC(N)=O)NC(=O)[C@H](Cc1ccccc1)NC(=O)[C@H](CC(=O)O)NC(=O)[C@H](CC(=O)O)NC(=O)CNC(=O)[C@H](CCC(=O)O)NC(=O)CNC(=O)[C@@H](N)CSC1CC(=O)N(CCC(=O)NC(COCc2cn(CCCNC(=O)CN3CCN(CC(=O)O)CCN(CC(=O)O)CCN(CC(=O)O)CC3)nn2)(COCc2cn(CCCNC(=O)CN3CCN(CC(=O)O)CCN(CC(=O)O)CCN(CC(=O)O)CC3)nn2)COCc2cn(CCCNC(=O)CN3CCN(CC(=O)O)CCN(CC(=O)O)CCN(CC(=O)O)CC3)nn2)C1=O)C(C)C)[C@@H](C)O)C(=O)N[C@H](C(=O)N[C@@H](CCCCN)C(=O)N1CCC[C@H]1C(=O)N[C@H](C(=O)N[C@@H](CO)C(=O)N[C@@H](CC(=O)O)C(=O)O)[C@@H](C)O)[C@@H](C)O", "note": "(some centres unmarked) [SBK2-Tris-(Gd-DOTA)3] (H-C(X1)GEGDDFNWEQVNTLTKPTSD-OH; N-terminus and C-terminus assumed)", "values": [{"measurement": "Gd concentration in tumor at 60 minutes", "setting": "LN-229 flank tumors; 0.2 mmol Gd/kg", "result": "remains at near peak levels"}, {"measurement": "retention judged from slope of mean tumor normalized T1 values", "setting": "LN-229 flank tumors; 0.2 mmol Gd/kg, measured every 2.5 minutes for 62.5 minutes", "result": "highest retention"}, {"measurement": "distribution of T1 changes in the tumor", "setting": "LN-229 flank tumors; 30 minutes and 60 minutes, larger tumors", "result": "uniformly distributed throughout the tumor"}, {"measurement": "time the agent remains in the tumor", "setting": "LN-229 flank tumors; compared with non-specific molecular imaging agents", "result": 1, "unit": "h"}, {"measurement": "non-specific uptake compared with scrambled-Tris-(Gd-DOTA)3", "setting": "LN-229 flank tumors; mouse, in vivo", "result": "nearly identical non-specific uptake"}, {"measurement": "concentration accumulated in tumor relative to scrambled-Tris-(Gd-DOTA)3", "setting": "LN-229 flank tumors; tumors containing the PTPμ fragment", "result": "about twice"}, {"measurement": "increase in tumor CNR over scrambled Tris-(Gd-DOTA)3 or ProHance", "setting": "LN-229 flank tumor; 15 to 45 minutes post-injection, 0.1 mmol Gd/kg intravenous, P<0.001", "result": "~55", "unit": "%"}, {"measurement": "tumor CNR greater than the scrambled Tris-(Gd-DOTA)3 tumor CNR", "setting": "LN-229 flank tumor; 60 to 90 minutes, 0.1 mmol Gd/kg intravenous, P<0.001", "result": "approximately 53%"}, {"measurement": "increase in tumor CNR compared with ProHance", "setting": "LN-229 flank tumor; 60 to 120 minutes post-injection, 0.1 mmol Gd/kg intravenous, P<0.001", "result": "greater than 110%"}, {"measurement": "contrast enhancement compared with ProHance alone", "setting": "LN-229 flank tumor; mouse, in vivo", "result": "significantly higher"}]}, {"compound": "C-GEGDDFNWEQVNTLTKPTSD [SBK2]", "values": [{"measurement": "time contrast agent concentration remains at peak levels", "setting": "LN-229 flank tumors; mouse, in vivo", "result": "at least sixty"}, {"measurement": "retention time of the agent in the sample / glioblastoma", "setting": "LN-229 flank tumor; mouse, in vivo", "result": "up to two"}]}, {"compound": "C-GFTQPETGTDNDLWSVDNEK [scrambled, reference compound]", "values": [{"measurement": "time after peak within which contrast agent concentration begins to diminish", "setting": "LN-229 flank tumors; mouse, in vivo", "result": "thirty"}]}]}
